Test results reported in patent US6358885B1, “Substituted phenylheterocyclic herbicides” (Mississippi State University, priority 1992, dated 2002).

Experiments:
Test in all cases: Test B preemergence/postemergence greenhouse plant response rating 0 to 10
barley = type: in vivo, Hordeum vulgare; conditions: for Plant response rating, Barley: 0 to 10 scale
Method in brief: (§1)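 Both application timings were run together: seeds got compound preemergence, and established seedlings (two to eighteen cm) got it postemergence. Non-phytotoxic solvent carried the chemical. Ratings are visual, versus controls, at twelve to sixteen days.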

barnyardgrass = type: in vivo, Echinochloa crus-galli; conditions: for Plant response rating, Barnyardgrass: 0 to 10 scale
Method in brief: as §1

bedstraw = type: in vivo, Galium aparine; conditions: for Plant response rating, Bedstraw: 0 to 10 scale
Method in brief: as §1

blackgrass = type: in vivo, Alopecurus myosuroides; conditions: for Plant response rating, Blackgrass: 0 to 10 scale
Method in brief: as §1

cheatgrass = type: in vivo, Bromus secalinus; conditions: for Plant response rating, Cheatgrass: 0 to 10 scale
Method in brief: as §1

chickweed = type: in vivo, Stellaria media; conditions: for Plant response rating, Chickweed: 0 to 10 scale
Method in brief: as §1

cocklebur = type: in vivo, Xanthium pensylvanicum; conditions: for Plant response rating, Cocklebur: 0 to 10 scale
Method in brief: as §1

corn = type: in vivo, Zea mays; conditions: for Plant response rating, Corn: 0 to 10 scale
Method in brief: as §1

cotton = type: in vivo, Gossypium hirsutum; conditions: for Plant response rating, Cotton: 0 to 10 scale
Method in brief: as §1

crabgrass = type: in vivo, Digitaria spp.; conditions: for Plant response rating, Crabgrass: 0 to 10 scale
Method in brief: as §1

giant foxtail = type: in vivo, Setaria faberii; conditions: for Plant response rating, Giant foxtail: 0 to 10 scale
Method in brief: as §1

lambsquarters = type: in vivo, Chenopodium album; conditions: for Plant response rating, Lambsquarter: 0 to 10 scale
Method in brief: as §1

morningglory = type: in vivo, Ipomoea hederacea; conditions: for Plant response rating, Morningglory: 0 to 10 scale
Method in brief: as §1

rape = type: in vivo, Brassica napus; conditions: for Plant response rating, Rape: 0 to 10 scale
Method in brief: as §1

rice = type: in vivo, Oryza sativa; conditions: for Plant response rating, Rice: 0 to 10 scale
Method in brief: as §1

sorghum = type: in vivo, Sorghum bicolor; conditions: for Plant response rating, Sorghum: 0 to 10 scale
Method in brief: as §1

soybean = type: in vivo, Glycine max; conditions: for Plant response rating, Soybean: 0 to 10 scale
Method in brief: as §1

sugar beet = type: in vivo, Beta vulgaris; conditions: for Plant response rating, Sugar beet: 0 to 10 scale
Method in brief: as §1

velvetleaf = type: in vivo, Abutilon theophrasti; conditions: for Plant response rating, Velvetleaf: 0 to 10 scale
Method in brief: as §1

wheat = type: in vivo, Triticum aestivum; conditions: for Plant response rating, Wheat: 0 to 10 scale
Method in brief: as §1

wild buckwheat = type: in vivo, Polygonum convolvulus; conditions: for Plant response rating, Wild buckwheat: 0 to 10 scale
Method in brief: as §1

wild oat = type: in vivo, Avena fatua; conditions: for Plant response rating, Wild oat: 0 to 10 scale
Method in brief: as §1

purple nutsedge = type: in vivo, Cyperus rotundus; conditions: for Plant response rating, Nutsedge: 0 to 10 scale
Method in brief: as §1

Structure (SMILES): CC(C)Oc1cc(-c2nn3c(c2Cl)CCCC3)c(Cl)cc1Cl [Compound 70]
- Plant response rating, Barley (barley; POSTEMERGENCE, Rate 50 g/ha): 3
- Plant response rating, Barley (barley; PREEMERGENCE, Rate 50 g/ha): 0
- Plant response rating (0 to 10 scale), Barley (barley; PREEMERGENCE, Rate 200 g/ha): 0
- Plant response rating, Barley (barley; Rate 200 g/ha, POSTEMERGENCE): 4
- Plant response rating, Barnyardgrass (barnyardgrass; POSTEMERGENCE, Rate 50 g/ha): 6
- Plant response rating, Barnyardgrass (barnyardgrass; PREEMERGENCE, Rate 50 g/ha): 0
- Plant response rating (0 to 10 scale), Barnyardgrass (barnyardgrass; PREEMERGENCE, Rate 200 g/ha): 0
- Plant response rating, Barnyardgrass (barnyardgrass; Rate 200 g/ha, POSTEMERGENCE): 7
- Plant response rating, Bedstraw (bedstraw; POSTEMERGENCE, Rate 50 g/ha): 8
- Plant response rating, Bedstraw (bedstraw; PREEMERGENCE, Rate 50 g/ha): 1
- Plant response rating (0 to 10 scale), Bedstraw (bedstraw; PREEMERGENCE, Rate 200 g/ha): 6
- Plant response rating, Bedstraw (bedstraw; Rate 200 g/ha, POSTEMERGENCE): 7
- Plant response rating, Blackgrass (blackgrass; PREEMERGENCE, Rate 50 g/ha): 0
- Plant response rating (0 to 10 scale), Blackgrass (blackgrass; PREEMERGENCE, Rate 200 g/ha): 0
- Plant response rating, Blackgrass (blackgrass; Rate 200 g/ha, POSTEMERGENCE): 3
- Plant response rating, Cheatgrass (cheatgrass; POSTEMERGENCE, Rate 50 g/ha): 3
- Plant response rating, Cheatgrass (cheatgrass; PREEMERGENCE, Rate 50 g/ha): 0
- Plant response rating (0 to 10 scale), Cheatgrass (cheatgrass; PREEMERGENCE, Rate 200 g/ha): 2
- Plant response rating, Cheatgrass (cheatgrass; Rate 200 g/ha, POSTEMERGENCE): 4
- Plant response rating, Chickweed (chickweed; POSTEMERGENCE, Rate 50 g/ha): 2
- Plant response rating, Chickweed (chickweed; PREEMERGENCE, Rate 50 g/ha): 0
- Plant response rating (0 to 10 scale), Chickweed (chickweed; PREEMERGENCE, Rate 200 g/ha): 0
- Plant response rating, Chickweed (chickweed; Rate 200 g/ha, POSTEMERGENCE): 3
- Plant response rating, Cocklebur (cocklebur; POSTEMERGENCE, Rate 50 g/ha): 8
- Plant response rating, Cocklebur (cocklebur; PREEMERGENCE, Rate 50 g/ha): 0
- Plant response rating (0 to 10 scale), Cocklebur (cocklebur; PREEMERGENCE, Rate 200 g/ha): 0
- Plant response rating, Cocklebur (cocklebur; Rate 200 g/ha, POSTEMERGENCE): 8
- Plant response rating, Corn (corn; POSTEMERGENCE, Rate 50 g/ha): 4
- Plant response rating, Corn (corn; PREEMERGENCE, Rate 50 g/ha): 0
- Plant response rating (0 to 10 scale), Corn (corn; PREEMERGENCE, Rate 200 g/ha): 0
- Plant response rating, Corn (corn; Rate 200 g/ha, POSTEMERGENCE): 4
- Plant response rating, Cotton (cotton; POSTEMERGENCE, Rate 50 g/ha): 10
- Plant response rating, Cotton (cotton; PREEMERGENCE, Rate 50 g/ha): 0
- Plant response rating (0 to 10 scale), Cotton (cotton; PREEMERGENCE, Rate 200 g/ha): 0
- Plant response rating, Cotton (cotton; Rate 200 g/ha, POSTEMERGENCE): 10
- Plant response rating, Crabgrass (crabgrass; POSTEMERGENCE, Rate 50 g/ha): 3
- Plant response rating, Crabgrass (crabgrass; PREEMERGENCE, Rate 50 g/ha): 0
- Plant response rating (0 to 10 scale), Crabgrass (crabgrass; PREEMERGENCE, Rate 200 g/ha): 2
- Plant response rating, Crabgrass (crabgrass; Rate 200 g/ha, POSTEMERGENCE): 6
- Plant response rating, Giant foxtail (giant foxtail; POSTEMERGENCE, Rate 50 g/ha): 5
- Plant response rating, Giant foxtail (giant foxtail; PREEMERGENCE, Rate 50 g/ha): 0
- Plant response rating (0 to 10 scale), Giant foxtail (giant foxtail; PREEMERGENCE, Rate 200 g/ha): 4
- Plant response rating, Giant foxtail (giant foxtail; Rate 200 g/ha, POSTEMERGENCE): 5
- Plant response rating, Lambsquarter (lambsquarters; POSTEMERGENCE, Rate 50 g/ha): 9
- Plant response rating, Lambsquarter (lambsquarters; PREEMERGENCE, Rate 50 g/ha): 7
- Plant response rating (0 to 10 scale), Lambsquarter (lambsquarters; PREEMERGENCE, Rate 200 g/ha): 10
- Plant response rating, Lambsquarter (lambsquarters; Rate 200 g/ha, POSTEMERGENCE): 10
- Plant response rating, Morningglory (morningglory; POSTEMERGENCE, Rate 50 g/ha): 7
- Plant response rating, Morningglory (morningglory; PREEMERGENCE, Rate 50 g/ha): 0
- Plant response rating (0 to 10 scale), Morningglory (morningglory; PREEMERGENCE, Rate 200 g/ha): 0
- Plant response rating, Morningglory (morningglory; Rate 200 g/ha, POSTEMERGENCE): 8
- Plant response rating, Rape (rape; POSTEMERGENCE, Rate 50 g/ha): 7
- Plant response rating, Rape (rape; PREEMERGENCE, Rate 50 g/ha): 2
- Plant response rating (0 to 10 scale), Rape (rape; PREEMERGENCE, Rate 200 g/ha): 3
- Plant response rating, Rape (rape; Rate 200 g/ha, POSTEMERGENCE): 9
- Plant response rating, Rice (rice; POSTEMERGENCE, Rate 50 g/ha): 5
- Plant response rating, Rice (rice; PREEMERGENCE, Rate 50 g/ha): 0
- Plant response rating (0 to 10 scale), Rice (rice; PREEMERGENCE, Rate 200 g/ha): 0
- Plant response rating, Rice (rice; Rate 200 g/ha, POSTEMERGENCE): 5
- Plant response rating, Sorghum (sorghum; POSTEMERGENCE, Rate 50 g/ha): 5
- Plant response rating, Sorghum (sorghum; PREEMERGENCE, Rate 50 g/ha): 0
- Plant response rating (0 to 10 scale), Sorghum (sorghum; PREEMERGENCE, Rate 200 g/ha): 0
- Plant response rating, Sorghum (sorghum; Rate 200 g/ha, POSTEMERGENCE): 6
- Plant response rating, Soybean (soybean; POSTEMERGENCE, Rate 50 g/ha): 5
- Plant response rating, Soybean (soybean; PREEMERGENCE, Rate 50 g/ha): 0
- Plant response rating (0 to 10 scale), Soybean (soybean; PREEMERGENCE, Rate 200 g/ha): 0
- Plant response rating, Soybean (soybean; Rate 200 g/ha, POSTEMERGENCE): 6
- Plant response rating, Sugar beet (sugar beet; POSTEMERGENCE, Rate 50 g/ha): 10
- Plant response rating, Sugar beet (sugar beet; PREEMERGENCE, Rate 50 g/ha): 6
- Plant response rating (0 to 10 scale), Sugar beet (sugar beet; PREEMERGENCE, Rate 200 g/ha): 10
- Plant response rating, Sugar beet (sugar beet; Rate 200 g/ha, POSTEMERGENCE): 10
- Plant response rating, Velvetleaf (velvetleaf; POSTEMERGENCE, Rate 50 g/ha): 10
- Plant response rating, Velvetleaf (velvetleaf; PREEMERGENCE, Rate 50 g/ha): 0
- Plant response rating (0 to 10 scale), Velvetleaf (velvetleaf; PREEMERGENCE, Rate 200 g/ha): 5
- Plant response rating, Velvetleaf (velvetleaf; Rate 200 g/ha, POSTEMERGENCE): 10
- Plant response rating, Wheat (wheat; POSTEMERGENCE, Rate 50 g/ha): 4
- Plant response rating, Wheat (wheat; PREEMERGENCE, Rate 50 g/ha): 2
- Plant response rating (0 to 10 scale), Wheat (wheat; PREEMERGENCE, Rate 200 g/ha): 3
- Plant response rating, Wheat (wheat; Rate 200 g/ha, POSTEMERGENCE): 5
- Plant response rating, Wild buckwheat (wild buckwheat; POSTEMERGENCE, Rate 50 g/ha): 10
- Plant response rating, Wild buckwheat (wild buckwheat; PREEMERGENCE, Rate 50 g/ha): 8
- Plant response rating (0 to 10 scale), Wild buckwheat (wild buckwheat; PREEMERGENCE, Rate 200 g/ha): 8
- Plant response rating, Wild buckwheat (wild buckwheat; Rate 200 g/ha, POSTEMERGENCE): 10
- Plant response rating, Wild oat (wild oat; POSTEMERGENCE, Rate 50 g/ha): 2
- Plant response rating, Wild oat (wild oat; PREEMERGENCE, Rate 50 g/ha): 2
- Plant response rating (0 to 10 scale), Wild oat (wild oat; PREEMERGENCE, Rate 200 g/ha): 3
- Plant response rating, Wild oat (wild oat; Rate 200 g/ha, POSTEMERGENCE): 3
- Plant response rating, Nutsedge (purple nutsedge; POSTEMERGENCE, Rate 50 g/ha): 1
- Plant response rating, Nutsedge (purple nutsedge; PREEMERGENCE, Rate 50 g/ha): 0
- Plant response rating (0 to 10 scale), Nutsedge (purple nutsedge; PREEMERGENCE, Rate 200 g/ha): 0
- Plant response rating, Nutsedge (purple nutsedge; Rate 200 g/ha, POSTEMERGENCE): 5
